Series [1] has as its system in vivo Parkinson model. Particulars: ref [24]; cited from earlier work.
The target of series [2] is T1, TDP1 (Homo sapiens, UniProt Q9NUW8).
T1 construct: made in house; host or cells: Escherichia coli
As to the kind of experiment: Real-time detection of TDP1 activity with fluorescent oligonucleotide biosensor. Format: biochemical. How it is done:
The compounds synthesized starting from (+)-3-carene 8 were tested for their TDP1 inhibitory properties by measuring their IC50 values using a real-time fluorescent oligonucleotide biosensor [38].
A fluorophore quencher-coupled oligonucleotide biosensor was used for TDP1 enzyme activity real-time fluorescence detection. […] Recombinant protein TDP1 was expressed in Escherichia coli (pET 16B plasmid containing TDP1 cDNA was provided by Dr. K.W. Caldecott, University of Sussex, United Kingdom) and isolated as described by Lebedeva et al.. The reaction mixture contained TDP1 reaction buffer (50 mM Tris-HCl, 50 mM NaCl, 7 mM β-mercaptoethanol), 50 nM oligonucleotide substrate, varied concentrations of the tested compounds, and 1.5 nM purified TDP1 in a final volume of 200 μL.
The TDP1 reaction mixture was incubated at rt in a POLARstar OPTIMA fluorimeter (BMG LABTECH, GmbH). Fluorescence intensity was measured every 1 min (Ex485/Em520 nm). The efficiency of TDP1 inhibition was evaluated by comparing the rate of increase in the fluorescence of the biosensor in the presence of the compound to that of DMSO (1.5%) control wells. IC50 values were determined using an 11-point concentration–response curve. The data were imported into MARS Data Analysis 2.0 program (BMG LABTECH) and the slope during the linear phase was calculated. The IC50 measurements were carried out in at least three independent experiments.

The conditions of series [3]: ref [24]; cited from earlier work.
Series [4] deals with TDP1. Details: method as in PMID 31619021, PMID 30396105, PMID 30142660, PMID 29562592, PMID 27658793. Particulars: Figure 1; ref [10]-[13],[16]-[18],[20],[22]; read-out: IC50 of known TDP1 inhibitors; cited from earlier work.
Series [5] has as its system human breast adenocarcinoma cell line MCF-7. Details: method as in PMID 27658793. Conditions: ref [16]; cited from earlier work.
For series [6], the system named is Krebs-2 ascites. Also noted: method as in PMID 31878088. Particulars: in vivo tumor model, ref [17]; cited from earlier work.

pIC50: −log10 of the molar value. Some results are limits rather than exact numbers.

T1 sequence (Q9NUW8 whole entry): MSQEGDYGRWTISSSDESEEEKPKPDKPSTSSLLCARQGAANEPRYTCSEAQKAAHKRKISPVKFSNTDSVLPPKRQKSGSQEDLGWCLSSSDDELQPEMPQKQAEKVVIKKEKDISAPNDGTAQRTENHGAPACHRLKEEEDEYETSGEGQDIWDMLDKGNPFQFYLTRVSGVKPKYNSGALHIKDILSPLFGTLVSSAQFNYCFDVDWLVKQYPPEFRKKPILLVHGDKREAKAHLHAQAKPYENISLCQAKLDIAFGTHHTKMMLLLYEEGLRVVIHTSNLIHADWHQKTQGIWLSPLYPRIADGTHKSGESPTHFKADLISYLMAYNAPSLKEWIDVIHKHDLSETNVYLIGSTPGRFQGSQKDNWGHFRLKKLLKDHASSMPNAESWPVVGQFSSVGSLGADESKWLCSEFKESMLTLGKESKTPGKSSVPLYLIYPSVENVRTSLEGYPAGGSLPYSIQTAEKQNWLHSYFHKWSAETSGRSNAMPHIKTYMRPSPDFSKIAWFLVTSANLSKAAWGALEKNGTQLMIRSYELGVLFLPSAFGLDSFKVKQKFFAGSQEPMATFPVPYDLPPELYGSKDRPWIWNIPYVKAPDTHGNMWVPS

With `COc1cc(C2OC(C)(C)[C@@H]3CCC(C)=C[C@H]23)ccc1O` (mixture of isomers) [11a], the neuroprotective activity result in series [1] is “potent neuroprotective activity”. For the same compound, the “activity against TDP1 (in words)” value in series [2] is reported as “do not exhibit activity”. Also, the negative-log IC50 (pIC50) (commonly the negative decadic logarithm of the IC50, by convention in mol/L) in series [2] (real-time fluorescent oligonucleotide biosensor, 1.5 nM TDP1, 50 nM substrate, read-out: IC50, TDP1 inhibition) is less than 4.70. Moreover, the acute toxicity result in series [3] is listed as “low acute toxicity”.

As to `CC1(C)C2CC=C(COc3ccc4c5c(c(=O)oc4c3)CCC5)C1C2` (centres unmarked) [compound 4], the pIC50 in series [4] is 6.17. Further, the “reduction of the CC50 of camptothecin” value in series [5] is listed as “eight-fold”.

Regarding `CC(C)=CCC/C(C)=C/COc1ccc2c(-c3ccc(F)cc3)cc(=O)oc2c1` [compound 5], the negative-log IC50 (pIC50) in series [4] was 6.21. Besides, the “effect on the antitumor effect of Tpc” value in series [6] was “significant increase in the antitumor effect of Tpc”.

The record behind these values is publication PMC7436013, “Design, Synthesis, and Biological Investigation of Novel Classes of 3-Carene-Derived Potent Inhibitors of TDP1” (Molecules, 2020).
